The structures appear in SMILES notation. Like-named read-outs stand apart in the source and are kept apart here.

One assay deals with T1, zfSARM1 (Danio rerio, UniProt F1QWA8).
T1 sequence (F1QWA8 1-713): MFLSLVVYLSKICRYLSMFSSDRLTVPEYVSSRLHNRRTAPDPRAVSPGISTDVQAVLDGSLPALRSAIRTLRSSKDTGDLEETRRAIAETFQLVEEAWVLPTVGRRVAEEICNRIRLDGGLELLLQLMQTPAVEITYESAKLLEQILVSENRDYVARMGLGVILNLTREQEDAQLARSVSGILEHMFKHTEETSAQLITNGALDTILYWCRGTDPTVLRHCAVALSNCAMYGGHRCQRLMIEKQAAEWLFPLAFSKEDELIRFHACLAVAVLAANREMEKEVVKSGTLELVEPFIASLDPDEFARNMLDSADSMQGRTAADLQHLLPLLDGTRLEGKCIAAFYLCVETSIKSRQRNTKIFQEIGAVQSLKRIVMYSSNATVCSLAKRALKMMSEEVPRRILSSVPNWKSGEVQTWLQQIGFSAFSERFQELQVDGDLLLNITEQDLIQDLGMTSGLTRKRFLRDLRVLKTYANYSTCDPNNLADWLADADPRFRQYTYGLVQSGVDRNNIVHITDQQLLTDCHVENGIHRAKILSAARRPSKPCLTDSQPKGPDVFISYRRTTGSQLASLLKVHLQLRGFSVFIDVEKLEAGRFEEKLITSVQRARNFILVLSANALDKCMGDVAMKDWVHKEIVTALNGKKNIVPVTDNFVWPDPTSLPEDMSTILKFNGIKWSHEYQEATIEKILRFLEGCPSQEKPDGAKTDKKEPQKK
The assay can be described thus: Kinetic parameters of zfSARM1, substrate inhibition fit. The assay is classed as biochemical, Zebrafish. How it is done: (§1) FIG. 14C. […] The kinetic parameters were determined from plots of reaction velocity of NAD+ consumption versus substrate (NAD+) concentration and then fitted to the Michaelis-Menten equation (Km and Vmax) or substrate inhibition equation (Ki) using non-linear curve fit in GraphPad Prism. Kcat was calculated by dividing the Vmax with protein molar concentration.
(§2) For Vmax and Km determination, the NADase activity assay was performed with several different NAD+ substrate concentrations and sampled in constant time points. For each NAD+ concentration, linear increase zone was taken for slope (V0) calculation. All data were than fitted to the Michaelis-Menten equation using non-linear curve fit in GraphPad Prism software. Kcat was calculated by dividing the Vmax with protein molar concentration.

For assay [1], the target named is T2, hSARM1 (Homo sapiens, UniProt Q6SZW1).
T2 construct: hSARM1w.t; (26ERL . . . GPT724) that was not mutated in E642, was also expressed and isolated; 6xHis (N); TEV cleavage site (N); made in house; host or cells: HEK293F suspension cells
T2 sequence (Q6SZW1 with tags, fused parts or gaps): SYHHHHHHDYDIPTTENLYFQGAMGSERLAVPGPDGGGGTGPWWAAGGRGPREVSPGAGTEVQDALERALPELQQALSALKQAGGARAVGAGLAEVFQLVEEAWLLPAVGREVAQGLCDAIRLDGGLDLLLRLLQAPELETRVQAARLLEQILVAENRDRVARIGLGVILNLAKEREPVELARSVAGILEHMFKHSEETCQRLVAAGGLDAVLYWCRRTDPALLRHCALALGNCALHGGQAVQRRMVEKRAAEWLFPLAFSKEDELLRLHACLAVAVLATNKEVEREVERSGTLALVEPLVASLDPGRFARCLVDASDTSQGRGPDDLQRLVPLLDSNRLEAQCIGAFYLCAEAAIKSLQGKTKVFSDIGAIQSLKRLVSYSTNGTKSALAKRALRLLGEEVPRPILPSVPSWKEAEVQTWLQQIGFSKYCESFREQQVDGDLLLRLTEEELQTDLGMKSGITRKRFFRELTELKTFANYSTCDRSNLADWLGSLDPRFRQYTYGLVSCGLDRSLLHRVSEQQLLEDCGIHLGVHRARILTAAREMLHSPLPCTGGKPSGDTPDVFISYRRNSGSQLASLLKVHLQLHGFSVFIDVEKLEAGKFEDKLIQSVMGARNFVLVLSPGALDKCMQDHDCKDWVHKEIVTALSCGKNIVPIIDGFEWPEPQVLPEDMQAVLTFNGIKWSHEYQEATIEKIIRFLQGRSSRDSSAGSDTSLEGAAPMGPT
Description: eNAD-based NADase assay. Type of assay: biochemical. Conditions: 1:10 eNAD:NAD+; 400 nM enzyme; activity decreases at higher concentrations. As for the experimental part:
FIG. 7D: Rate of change in nucleotide fluorescence under steady-state conditions of eNAD hydrolysis by hSARM1. Reactions were initiated by mixing 400 nM enzyme with different concentrations of 1:10 eNAD+: NAD+(mol/mol) mixtures. Three repeats, standard deviation error bars.
Serial dilutions were made with 25 mM HEPES pH 7.5, 150 mM NaCl buffer and the final mix was transferred to 384-well black plate (Corning). Reaction started by the addition of hSARM1 to a final concentration 400 nM. Then, eNAD degradation rate was monitored by fluorescence reading (330-nm excitation and 405-nm emission wavelengths) of the plate using a SynergyHI (BioTek) in 25° C. for 3 hours. For each NAD+ concentration, a control reaction without SARM1 was measured and subtracted from the + hSARM1 reading and the slope of the linear area was calculated. For the final plot, average of slopes from 3 separate assays for each concentration was calculated.

The target in assay [2] is T2, hSARM1. The assay can be described thus: Kinetic parameters of hSARM1, substrate inhibition fit. The assay is classed as biochemical. As for the experimental part: as §1, §2

For `NC(=O)c1ccc[n+]([C@@H]2O[C@H](COP(=O)([O-])OP(=O)(O)OC[C@H]3O[C@@H](n4cnc5c(N)ncnc54)[C@H](O)[C@@H]3O)[C@@H](O)[C@H]2O)c1` [NAD+, Nicotinamide adenine dinucleotide], the Ki was determined as 1350 µM on zfSARM1 (apparent inhibition by substrate, read-out: Ki for NAD+, zfSARM1); 1300 µM at zfSARM1 (substrate inhibition equation, read-out: Ki, inhibition by the substrate NAD+, zfSARM1); 727 µM on hSARM1 [2] (apparent inhibition by substrate, read-out: Ki for NAD+, hSARM1); 700 µM on hSARM1 [2] (substrate inhibition equation, read-out: Ki, inhibition by the substrate NAD+, hSARM1). Moreover, at hSARM1 [1], the “NAD+ concentration at the highest rate of hydrolysis” value was 100 µM.

The values above are taken from patent publication US20220241416A1, “METHODS FOR THE IDENTIFICATION OF SARM1 NADASE ACTIVITY INHIBITORS AND USES THEREOF” (Bar Ilan University, priority 2021, published 2022).
